Experiments:
[1] = test system: multiple myeloma cell line U266B1; assay: U266 Cell Viability Assay; assay type: cell-based, human; details: Homo sapiens, U-266, 48 h, U266B1 cells, Celltiter-Glo
Summary of the method: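 Cells grown in RPMI 1640 with 10% FBS, 2 mM glutamine and penicillin/streptomycin were exposed to compound dilutions in DMSO/media for 48 hours at 37° C., 5% CO2. Viability was read by CellTiter-Glo luminescence. Undefined stereocentres mean data for stereoisomer mixtures.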

[2] = test system: HER3-ss+4aa/Gaussia Luciferase; assay: Dox-Induced Her3-ss-Gluc Assay; assay type: cell-based; details: 24 hr Dox induction; 293FRT/TO cells; read-out: 24 hr Dox Inducible Her3(ss + 4)Gluc 293FRT/TO: Mean IC50
Summary of the method: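 Stable Flp-In 293 T-REx line expressing Gaussia luciferase fused to the HER3 signal sequence plus 4 amino acids under tetracycline-regulated (T-REx) control. Cells plated the day before, then treated with compound dilutions in DMSO/media containing doxycycline and incubated at 37° C., 5% CO2.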

[3] = test system: multiple myeloma cell line NCI-H929; assay: H929 Cell Viability Assay; assay type: cell-based, human; details: Homo sapiens, NCI-H929, 48 h, NCI-H929 cells, Celltiter-Glo
Summary of the method: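 NCI-H929 cells, resuspended in RPMI 1640 with 10% FBS and 2 mM glutamine, were treated with compound dilutions in DMSO/media and incubated 48 hours at 37° C, 5% CO2. Viability was read by CellTiter-Glo luminescence. Compounds drawn without stereochemistry were tested as stereoisomer mixtures.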

[4] = Liver Microsome Stability Assay (monkey); details: monkey liver microsomes, with NADPH, 1.0 uM compound
Description: (§1) Stability of a compound was assessed in the presence of liver microsomes from various sources—mouse, rat, monkey and human liver microsomes. 1.0 uM compound, 0.4% DMSO in 0.1 M Potassium Phosphate with 1.0 mg/mL liver microsomes, were incubated at 37° C. with or without 1 mM NADPH. The samples were quenched at 0, and 30 minutes.

[5] = Liver Microsome Stability Assay (mouse); details: mouse liver microsomes, with NADPH, 1.0 uM compound
Description: as §1

[6] = Liver Microsome Stability Assay (rat); details: rat liver microsomes, with NADPH, 1.0 uM compound
Description: as §1

[7] = test system: TNFα-FL/Gaussia Luciferase; assay: Dox Induced TNFα-FL-Gluc Assay; assay type: cell-based; details: for IC50: 24 hr Dox induction, 293FRT/TO cells, read-out: 24 hr Dox Inducible TNFaFLGluc 293FRT/TO: Mean IC50; for 24 hr Dox Inducible TNFaFLGluc 293FRT/TO: TNF/PD1: ratio of TNFaFLGluc IC50 to PD1ssGluc IC50
Summary of the method: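 Flp-In 293 T-REx cells stably expressing full-length TNFα (aa 1-233) fused at its C-terminus to Gaussia luciferase under tetracycline-regulated control were plated the day before assay. Compound dilutions in DMSO/media containing doxycycline were added and incubated at 37 °C, 5% CO2. Unspecified stereochemistry denotes stereoisomer mixtures.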

[8] = test system: PD1-ss+10aa/Gaussia Luciferase; assay: Dox-Induced PD1-ss-Gluc Assay; assay type: cell-based; details: 24 hr Dox induction; 293FRT/TO cells; read-out: 24 hr Dox Inducible PD1ssGluc 293FRT/TO: Mean IC50
Summary of the method: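 Compounds were added in DMSO/media with doxycycline and incubated at 37 °C, 5% CO2, on 293 T-REx cells plated one day earlier. These cells stably express, under tetracycline-regulated control, a Gaussia luciferase fused to the PD1 signal peptide plus 10 residues. Structures drawn without stereochemistry were tested as stereoisomer mixtures.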

[9] = Liver Microsome Stability Assay (human); details: human liver microsomes, with NADPH, 1.0 uM compound
Description: as §1

[10] = test system: IL-2-FL/Gaussia Luciferase; assay: Dox Induced IL2-FL-Gluc Assay; assay type: cell-based; details: for IC50: 24 hr Dox induction, 293FRT/TO cells, read-out: 24 hr Dox Inducible IL2FLGluc 293FRT/TO: Mean IC50; for 24 hr Dox Inducible IL2FLGluc 293FRT/TO: IL2/PD1: ratio of IL2FLGluc IC50 to PD1ssGluc IC50
Summary of the method: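 Flp-In 293 T-REx cells stably carrying doxycycline-inducible full-length IL-2 (aa 1-153) fused at its C-terminus to Gaussia luciferase, selected with hygromycin and blasticidin. Cells were plated the day before, then treated with compounds in DMSO/media containing doxycycline at 37° C, 5% CO2.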

Structure (SMILES)	EC50 [1] [nM]	IC50 [2] [nM]	EC50 [3] [nM]	Liver Microsome Stability (Multiple Species): Monkey - % Remaining after 30 min w/NADPH [4] [%]	Liver Microsome Stability (Multiple Species): Mouse - % Remaining after 30 min w/NADPH [5] [%]	Liver Microsome Stability (Multiple Species): Rat - % Remaining after 30 min w/NADPH [6] [%]	IC50 [7] [nM]	IC50 [8] [nM]	Liver Microsome Stability (Multiple Species): Human - % Remaining after 30 min w/NADPH [9] [%]	IC50 [10] [nM]	24 hr Dox Inducible TNFaFLGluc 293FRT/TO: TNF/PD1 [7]	24 hr Dox Inducible IL2FLGluc 293FRT/TO: IL2/PD1 [10]
O=C(Nc1nc([C@H]2CCCN2c2ccc(OC3CS(=O)(=O)C3)cc2)cs1)c1cccn1Cc1ccnc(F)c1 [Compound A158]	> 25000	128	3320	1.84	14.5	24.2	1060	90.5	8.23	130	11.7	1.4
O=C(Nc1nc(-c2cccc(-c3ccccn3)c2)cs1)c1cccn1Cc1ccnc(F)c1 [Compound A162, 1-((2-fluoropyridin-4-yl)methyl)-N-(4-(3-(pyridin-2-yl)phenyl)thiazol-2-yl)-1H-pyrrole-2-carboxamide]	> 25000	1270	> 25000	0.25	7.13	8.48	> 25000	758	1.91	1770	>33.0	2.4
Cc1cc(C(=O)Nc2nc([C@H]3CCCN3c3ccc(NC(=O)N(C)C)cc3)cs2)n(Cc2ccnc(F)c2)c1 [Compound A163, (R)-N-(4-(1-(4-(3,3-dimethylureido)phenyl)pyrrolidin-2-yl)thiazol-2-yl)-1-((2-fluoropyridin-4-yl)methyl)-4-methyl-1H-pyrrole-2-carboxamide]	> 25000	29.9	714	44.9	36.3	50.2	328	16.1	67.5	39.6	20.3	2.5
CC(=O)Nc1ccc(N2CCC[C@@H]2c2csc(NC(=O)c3cc(C)cn3Cc3ccnc(F)c3)n2)cc1 [Compound A164, (R)-N-(4-(1-(4-acetamidophenyl)pyrrolidin-2-yl)thiazol-2-yl)-1-((2-fluoropyridin-4-yl)methyl)-4-methyl-1H-pyrrole-2-carboxamide]	> 25000	17.3	274	32.3	18.8	19.4	148	7.95	36.5	19.1	18.7	2.4
Cc1cc(C(=O)Nc2nc([C@H]3CCCN3c3ccc(OC4CCN(C(N)=O)CC4)cc3)cs2)n(Cc2ccnc(F)c2)c1 [Compound A166, (R)-4-(4-(2-(2-(1-((2-fluoropyridin-4-yl)methyl)-4-methyl-1H-pyrrole-2-carboxamido)thiazol-4-yl)pyrrolidin-1-yl)phenoxy)piperidine-1-carboxamide]	> 25000	93.7	2210	72.2	63.9	78.7	744	52.8	64.3	109	14.1	2.1

The next lines start with results.

EC50 [1] [nM]	IC50 [2] [nM]	EC50 [3] [nM]	Liver Microsome Stability (Multiple Species): Monkey - % Remaining after 30 min w/NADPH [4] [%]	Liver Microsome Stability (Multiple Species): Mouse - % Remaining after 30 min w/NADPH [5] [%]	Liver Microsome Stability (Multiple Species): Rat - % Remaining after 30 min w/NADPH [6] [%]	IC50 [7] [nM]	IC50 [8] [nM]	Liver Microsome Stability (Multiple Species): Human - % Remaining after 30 min w/NADPH [9] [%]	IC50 [10] [nM]	Structure (SMILES)	24 hr Dox Inducible TNFaFLGluc 293FRT/TO: TNF/PD1 [7]	24 hr Dox Inducible IL2FLGluc 293FRT/TO: IL2/PD1 [10]
> 25000	35.8	1620	3.91	36	19.7	790	27.9	9.01	80.6	NC(=O)N1CCC(Oc2ccc(N3CCC[C@@H]3c3csc(NC(=O)c4cccn4Cc4ccnc(F)c4)n3)cn2)CC1 [Compound A159, (R)-4-((5-(2-(2-(1-((2-fluoropyridin-4-yl)methyl)-1H-pyrrole-2-carboxamido)thiazol-4-yl)pyrrolidin-1-yl)pyridin-2-yl)oxy)piperidine-1-carboxamide]	28.3	2.9
> 25000	82.4	2670	0.18	6.28	16.8	691	48.1	0.66	96	CC(=O)N1CCC(Cc2ccc(N3CCC[C@@H]3c3csc(NC(=O)c4cccn4Cc4ccnc(F)c4)n3)cc2)CC1 [Compound A160, (R)-N-(4-(1-(4-((1-acetylpiperidin-4-yl)methyl)phenyl)pyrrolidin-2-yl)thiazol-2-yl)-1-((2-fluoropyridin-4-yl)methyl)-1H-pyrrole-2-carboxamide]	14.3	2
> 25000	406	12400	0.12	0.42	7.32	4000	284	1.04	640	CC(=O)N1CCC(C(C)c2ccc(N3CCC[C@@H]3c3csc(NC(=O)c4cccn4Cc4ccnc(F)c4)n3)cc2)CC1 (stereo partly drawn) [Compound A161, N-(4-((2R)-1-(4-(1-(1-acetylpiperidin-4-yl)ethyl)phenyl)pyrrolidin-2-yl)thiazol-2-yl)-1-((2-fluoropyridin-4-yl)methyl)-1H-pyrrole-2-carboxamide]	14.1	2.3
> 25000	53	867	47.5	30.7	59.2	386	29.8	42.1	45.2	CC(=O)N1CCC(Oc2ccc(N3CCC[C@@H]3c3csc(NC(=O)c4cc(C)cn4Cc4ccnc(F)c4)n3)cc2)CC1 [Compound A165, (R)-N-(4-(1-(4-((1-acetylpiperidin-4-yl)oxy)phenyl)pyrrolidin-2-yl)thiazol-2-yl)-1-((2-fluoropyridin-4-yl)methyl)-4-methyl-1H-pyrrole-2-carboxamide]	13	1.5
